The assay concerns Mus musculus. In words: Analgetic activity in sc dosed CF1S mouse assessed as writhing by phenylquinone writhing test. The format is functional. (An intraperitoneal irritant provokes the stretching counted in writhing tests.)
[1] abbreviates: Mus musculus, CF1S, sc, read-out: ED50.

The structures appear in SMILES notation.

Drawing on ChEMBL document CHEMBL3244027, “Syntheses, analgetic activity, and physical dependence capacity of 5-phenyl-6,7-benzomorphan derivatives” (J Med Chem, 1979), this text covers ED50 for 34 compounds.

Turning to `CCCN1CCC2(c3ccccc3)c3cc(O)ccc3CC1C2C.Cl` (stereo in doubt; 173), the ED50 was over 100 mg/kg.
Regarding `CC1C2Cc3ccc(OC(=O)c4ccc(F)cc4)cc3C1(c1ccccc1)CCN2C` (centres undefined), the ED50 under setting [1] worked out at 0.7 mg/kg.
On to `C=CCN1CCC2(c3ccccc3)CC1Cc1ccc(O)cc12` (racemic), for which the ED50 was over 100 mg/kg.
Turning to `COc1ccc2c(c1)C1(c3ccccc3)CCN(C)C(C2)C1.Cl.O` (centres undefined), the ED50 under setting [1] was 16 mg/kg.
For the compound `CC(C)=CCN1CCC2(c3ccccc3)CC1Cc1ccc(O)cc12` (racemic), under setting [1], the ED50 came out at 15 mg/kg.
The same measure, in the same setting: the value for `Cc1ccc(S(=O)(=O)Oc2ccc3c(c2)C2(c4ccccc4)CCN(C)C(C3)C2C)cc1.Cl` (centres undefined) was over 100 mg/kg.
Consider `CN1CCC2(c3ccccc3)CC1Cc1ccccc12.O=C(O)C(O)C(O)C(=O)O` (stereo in doubt; 37), for which the ED50 was 8 mg/kg.
Turning to `CC(C)=CCN1CCC2(c3ccccc3)c3cc(OC(=O)c4c(Cl)cccc4Cl)ccc3CC1C2C` (centres undefined), the ED50 under setting [1] is over 100 mg/kg.
Same read-out and setting: the value for `C#CCN1CCC2(c3ccccc3)c3cc(OC)ccc3CC1C2C` (centres undefined) was over 100 mg/kg; that for `CC(C)O.CC1C2Cc3ccc(O)cc3C1(c1ccccc1)CCN2CC1CC1.Cl` (stereo in doubt; 170) was 100 mg/kg.
As for `CC1C2Cc3ccc(O)cc3C1(c1ccccc1)CCN2CC1CCC1.Cl` (stereo in doubt; 171), the ED50 was over 100 mg/kg.
For the compound `CC1C2Cc3ccc(O)cc3C1(c1ccccc1)CCN2CCCN(C)C` (centres undefined), under setting [1], the ED50 is over 120 mg/kg.
Still for that read-out and setting: the result for `CN1CCC2(c3ccccc3)CC1Cc1ccccc12.O=C(O)C(O)C(O)C(=O)O` (stereo in doubt; 36) reads 5.5 mg/kg.
As for `CS(=O)(=O)O.c1ccc(CCN2CCC3(c4ccccc4)CC2Cc2ccccc23)cc1` (centres undefined), under setting [1], the ED50 is over 100 mg/kg.
On the same count and under the same terms, the result for `CC1C2Cc3ccc(OC(=O)c4c(Cl)cccc4Cl)cc3C1(c1ccccc1)CCN2C` (centres undefined) reads over 100 mg/kg; that for `COc1ccc2c(c1)C1(c3ccccc3)CCN(C)C(C2)C1` (racemic), 14 mg/kg.
On to `CN1CCC2(c3ccccc3)CC1Cc1ccc(O)cc12.Cl` (stereo in doubt; 42), for which the ED50 worked out at 5.6 mg/kg.
As for `C[C@@H]1C2Cc3ccc(O)cc3C1(c1ccccc1)CCN2C` (some centres undefined), the ED50 under setting [1] was 0.5 mg/kg.
Regarding `CC1C2Cc3ccc(O)cc3C1(c1ccccc1)CCN2C(=O)C12CC3CC(CC(C3)C1)C2` (centres undefined), the ED50 under setting [1] was over 100 mg/kg.
As for `C=C(Br)CN1CCC2(c3ccccc3)CC1Cc1ccc(O)cc12` (racemic), the ED50 under setting [1] was over 100 mg/kg.
The same measure, in the same setting: the value for `CC(C)=CCN1CCC2(c3ccccc3)c3cc(OC(=O)c4ccccc4)ccc3CC1C2C` (centres undefined) was over 100 mg/kg.
`CC(C)=CCN1CCC2(c3ccccc3)c3cc(O)ccc3CC1C2C.Cl` (stereo in doubt; 169): the ED50 is 41 mg/kg.
`CC(C)O.CC1C2Cc3ccc(O)cc3C1(c1ccccc1)CCN2CC1CC1.Cl` (stereo in doubt; 218): the ED50 was over 100 mg/kg.
With `CC1C2Cc3ccc(OC(=O)c4ccc([N+](=O)[O-])cc4)cc3C1(c1ccccc1)CCN2C` (centres undefined), the ED50 under setting [1] amounted to 0.6 mg/kg.
The same measure, in the same setting: the value for `CC(C)O.Oc1ccc2c(c1)C1(c3ccccc3)CCNC(C2)C1` (centres undefined) was over 100 mg/kg; that for `C[C@@H]1C2Cc3ccc(O)cc3C1(c1ccccc1)CCN2CC(=O)O` (some centres undefined) was over 100 mg/kg; that for `Cl.Oc1ccc2c(c1)C1(c3ccccc3)CCN(CC3CC3)C(C2)C1` (centres undefined) was 15 mg/kg.
Take `CN1CCC2(c3ccccc3)CC1Cc1ccc(O)cc12.Cl` (stereo in doubt; 43): the ED50 under setting [1] is 5.5 mg/kg.
As for `CC1C2Cc3ccc(O)cc3C1(c1ccccc1)CCN2C` (centres undefined), under setting [1], the ED50 is 4.2 mg/kg.
Regarding `Oc1ccc2c(c1)C1(c3ccccc3)CCNC(C2)C1` (racemic), the ED50 under setting [1] is over 100 mg/kg.
Still for that read-out and setting: the result for `C=CCN1CCC2(c3ccccc3)c3cc(O)ccc3CC1C2C.CCCO.Cl` (centres undefined) reads over 100 mg/kg.
Same read-out and setting: the value for `CC1C2Cc3ccc(O)cc3C1(c1ccccc1)CCN2C1CCCC1.Cl` (centres undefined) was 120 mg/kg.
Consider `CC(C)O.Cl.Oc1ccc2c(c1)C1(c3ccccc3)CCN(CC3CC3)C(C2)C1` (stereo in doubt; 144), for which the ED50 was over 33 mg/kg.
As to `C#CCN1CCC2(c3ccccc3)CC1Cc1ccc(OC(=O)c3ccccc3)cc12` (racemic), the ED50 under setting [1] was over 100 mg/kg.

The term ED50 denotes the dose that gives a 50% effect, or the effect in half of the subjects.
